# Results taken from patent publication US20220031901A1, “FRAGRANCE COMPOSITION” (Takasago International Corporation, priority 2020, published 2022).
# Key:
# [1] = Sensory evaluation of unpleasant odor suppression ability of Group A; design: species or system human; settings: for Indole strength / Skatole strength: average of 20 panelists, scale 0 (not smelled) to 10 (very strongly), unpleasant odor alone = 8, 1 hour; for Indole strength: 10 μL indole diluted 100-fold + 1 μL test substance; for Skatole strength: 10 μL skatole diluted 100-fold + 1 μL test substance; for Effect of suppressing the unpleasant odors (skatole, indole): sensory evaluation, result in words
# Method: The unpleasant odor suppression ability of test substances having activity to inhibit receptor action was confirmed by sensory evaluation. A cotton ball on which 10 μL of skatole or indole diluted 100-fold with triethyl citrate as an unpleasant odor and 1 μL of a test substance were dropped was put into a plastic bottle (OZO-40 manufactured by Takemoto Yohki Co., Ltd.). The bottle was allowed to stand at room temperature for 1 hour to sufficiently volatilize odor molecules therein. The sensory evaluation test was conducted by a panel consisting of 20 persons, who made evaluation as follows: the odor strength in the case where the unpleasant odor was dropped solely was rated as 8, and the unpleasant odor strength in the case where the test substance was mixed was rated as from 0 (the unpleasant odor is not smelled) to 10 (the unpleasant odor is smelled very strongly). The average value was calculated from obtained numerical values.
# [2] = target: T1, olfactory receptor OR2L3 (Homo sapiens, UniProt Q8NG85); test: Effect of suppressing the response of OR2L3 to unpleasant odor (luciferase reporter gene assay); assay type: cell-based; settings: for Effect of suppressing the response of OR2L3 to skatole: test substance mixed with skatole, ratio of Fold Increase value, FIGS. 6 to 8; for Effect of suppressing the response of OR2L3 to indole: test substance mixed with indole, FIGS. 9 to 11
# T1 construct: N-terminal 20 amino acid residues of bovine rhodopsin (Rho tag); expressed in transfected cells; host or cells: HEK293T
# T1 sequence (Q8NG85 1-312): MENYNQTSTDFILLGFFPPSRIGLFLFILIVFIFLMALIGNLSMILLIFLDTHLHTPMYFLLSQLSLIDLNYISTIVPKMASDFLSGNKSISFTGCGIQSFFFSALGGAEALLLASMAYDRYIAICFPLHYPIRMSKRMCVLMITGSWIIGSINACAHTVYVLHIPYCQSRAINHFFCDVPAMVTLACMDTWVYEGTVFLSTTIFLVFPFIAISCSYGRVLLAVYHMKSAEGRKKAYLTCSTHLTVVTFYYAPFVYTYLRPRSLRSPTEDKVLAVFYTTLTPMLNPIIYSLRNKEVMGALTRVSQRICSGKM
# Method: (§1) A human olfactory receptor gene was obtained by cloning according to the PCR method using Human Genomic DNA: Female (Promega) based on the sequence information registered in GenBank. The N-terminal 20 amino acid residues of bovine rhodopsin were incorporated into a pME18S vector, and the obtained human olfactory receptor gene was further incorporated downstream thereof, thereby obtaining a human olfactory receptor gene expression vector.
# (§2) 0.05 μg of the human olfactory receptor gene expression vector, 0.01 μg of an RTP1S vector, 0.01 μg of a firefly luciferase vector pGL4.29 containing a cAMP-responsive sequence promoter (Promega), and 0.005 μg of a Renilla luciferase vector pGL4.74 containing a thymidine kinase promoter (Promega) were dissolved in 10 μL of Opti-MEM I (gibco) to obtain a gene solution (for one well). 100 μL of HEK293T cells were seeded in each well of a 96-well plate (Biocoat manufactured by Corning) so as to reach confluency after 24 hours. According to the directions for use of Lipofectamine 3000, by the lipofection method, the gene solution was added to each well to perform gene transfer to cells, and culturing was performed under 5% carbon dioxide atmosphere at 37° C. for 24 hours.
# (§3) After removing the culture medium, 50 μL of CD293 medium (gibco) (20 μM L-glutamine added) including measured concentration of an aroma compound as a sample was added to each well, and stimulation was performed for 3 hours. After that, the luciferase activity was measured according to the directions for use of Dual-Luciferase Reporter Assay System (Promega). The response strength of the olfactory receptor was expressed by the Fold Increase value, which is obtained by dividing the luciferase activity generated by stimulation of the aroma compound by the luciferase activity generated in the test system not including the aroma compound.
# With respect to Group A, the effect of suppressing the response of OR2L3 that strongly responded to unpleasant odors was measured by means of luciferase reporter gene assay. In luciferase reporter gene assay, skatole and Guava coeur (registered trademark) were used by being mixed with a sample. The Fold Increase value in the test in which Guava coeur was not mixed was regarded as 1, and the ratio of the Fold Increase value in the test in which Guava coeur was mixed was obtained.
# Guava coeur in the evaluation of the effect of suppressing the response of OR2L3 was replaced by Dextramber (registered trademark), and the test was conducted in the same manner. […] Similarly, Guava coeur was replaced by Hindinol (registered trademark) and the test was conducted.
# Regarding the unpleasant odor in the evaluation of the effect of suppressing the response of OR2L3, skatole was replaced by indole, and the test was conducted in the same manner.
# In the evaluation of the effect of suppressing the response of OR2L3, the test was further conducted using combinations in which Guava coeur was replaced by another material of Group A and the skatole as the unpleasant odor was replaced by α-terpineol, 4-terpineol or p-methylacetophenone.
# [3] = Sensory evaluation of ability to suppress model fecal odor by fragrance compositions; design: species or system human; settings: substance blended in the fragrance composition (floral-fruity base); result in words
# Method: Fragrance compositions of Fragrance 1 to Fragrance 41 were prepared according to the formulations in Tables 2-6 below. DPG in the tables means dipropylene glycol. […] Note that the way of dividing the group and the ratio in the group are optional and not limited by Table 7. The floral-fruity base in Tables 2-6 was prepared according to Table 8.
# Regarding these fragrance compositions, the ability to suppress the unpleasant odor was confirmed by means of sensory evaluation. As the unpleasant odor, a model fecal odor containing skatole, indole, butyric acid, p-cresol and dimethyl trisulfide (Lin et al., Environ. Sci. Technol., 2013, 47(14), pp. 7876-7882) was diluted 100-fold, and 10 μL thereof was dropped on a cotton ball, and as a test substance, 1 μL of one of Fragrance 1 to Fragrance 41 was dropped on the cotton ball. Then the cotton ball was put into a plastic bottle (OZO-40 manufactured by Takemoto Yohki Co., Ltd.). The bottle was allowed to stand at room temperature for 1 hour to sufficiently volatilize odor molecules therein. The sensory evaluation test was conducted by a panel consisting of 20 persons, who made evaluation as follows: the unpleasantness in the case where the unpleasant odor was dropped solely was rated as −3, and the unpleasantness in the case where the test substance was mixed was rated as from −4 (extremely unpleasant) to +4 (extremely pleasant). The average value was calculated from obtained numerical values.
# [4] = target: T1, olfactory receptor OR2L3; test: Response of olfactory receptor OR2L3 to unpleasant odor-causing substance (luciferase reporter gene assay); assay type: cell-based; settings: various concentrations, stimulation 3 hours, HEK293T cells expressing OR2L3; FIGS. 1 to 5
# Method: as §1, §2, §3
# Responses of the olfactory receptor OR2L3 to skatole, indole, α-terpineol, 4-terpineol or p-methylacetophenone as a typical example of the unpleasant odor-causing substance were measured with various concentrations by means of luciferase reporter gene assay. […] Meanwhile, in the Mock test (using cells in which OR2L3 was not expressed), no response was shown. That is, it was shown that OR2L3 specifically responds to the respective unpleasant odor-causing substances.
Response of the olfactory receptor OR2L3 (Fold Increase value) [4],Compound,Indole strength [1],Skatole strength [1],Effect of suppressing the response of OR2L3 to skatole [2],"Effect of suppressing the unpleasant odors (skatole, indole) [1]",Suppression of the unpleasantness of the model fecal odor [3],Effect of suppressing the response of OR2L3 to indole [2]
concentration-dependent responses,CC(=O)c1ccc(C)cc1 [p-methylacetophenone],,,,,,
concentration-dependent responses,Cc1c[nH]c2ccccc12 [skatole],,,,,,
concentration-dependent responses,CC1=CCC(C(C)(C)O)CC1 (stereo not drawn) [α-terpineol],,,,,,

# Further lines, the compound ahead of its results:
Compound,Response of the olfactory receptor OR2L3 (Fold Increase value) [4],Indole strength [1],Skatole strength [1],Effect of suppressing the response of OR2L3 to skatole [2],"Effect of suppressing the unpleasant odors (skatole, indole) [1]",Suppression of the unpleasantness of the model fecal odor [3],Effect of suppressing the response of OR2L3 to indole [2]
"CC(C)(C)C1CCC(O)CC1 (stereo not shown) [4-t-butylcyclohexanol, reference compound]",,6.0,6.3,did not suppress,,,
"O=C1CCCC=CCCCCCCCCCC1 [Ambretone, 5-cyclohexadecenone]",,3.6,4.2,,suppress the unpleasant odors,suppress the unpleasantness,
"CCCC(O)CCC1C(C)CCCC1(C)C (stereo not shown) [Dextramber, 1-(2,2,6-trimethylcyclohexyl)hexan-3-ol]",,3.9,4.0,concentration-dependently reducing the response,suppress the unpleasant odors,suppress the unpleasantness,concentration-dependently reducing the response
"CC1=CCC(O)(C(C)C)CC1 (stereo not shown) [Fragrance 4-terpineol, 4-terpineol]",concentration-dependent responses,,,,,,
"CCOC(=O)C(C)C(C)S (stereo not shown) [Guava coeur, ethyl 3-mercapto-2-methylbutyrate]",,3.3,3.0,concentration-dependently reducing the response,suppress the unpleasant odors,suppress the unpleasantness,concentration-dependently reducing the response
"CCCCCCOC(=O)c1ccccc1O [Hexyl salicylate, hexyl salicylate, reference compound]",,6.7,6.9,did not suppress,,,
"CC(=CCC1CC=C(C)C1(C)C)CO (stereo not shown) [Hindinol, 2-methyl-4-(2,2,3-trimethyl-3-cyclopentenyl)-2-buten-1-ol]",,4.1,3.6,concentration-dependently reducing the response,suppress the unpleasant odors,suppress the unpleasantness,concentration-dependently reducing the response
"CC(c1ccccc1)C1CC1C(C)(C)O (stereo not shown) [Pamplefix, dimethyl-2-(1-phenylethyl)cyclopropylmethanol]",,2.4,2.5,,suppress the unpleasant odors,suppress the unpleasantness,
"CC1CCC(C(C)(C)S)C(=O)C1 (stereo not shown) [Ringonol, p-mentha-8-thiol-3-one]",,3.7,3.9,,suppress the unpleasant odors,suppress the unpleasantness,
c1ccc2[nH]ccc2c1 [indole],concentration-dependent responses,,,,,,
methyl fenchol [Humus Ether],,,,suppresses,,suppressed the unpleasantness,
